Measurements reported in patent US8263562B2, “Peptides for preventing or treating liver damage” (priority 2006, dated 2012).

Assays:
γ-IFN = assay: Effects of the peptide on γ-IFN of rats in vivo; set-up: species or system SD Rats; conditions: four immunizations
Description: SD Rats (body weight of each was 180 g˜220 g; half of them were male and the others were female; and they were purchased from the Animal Institute of Academy Of Military Medical Sciences) were divided randomly into 5 groups as follows with 10 rats in each group: (1) the blank control group; (2) the adjuvant control group; (3) the high dose group, immunized with Peptide A and adjuvant; (4) the low dose group, immunized with Peptide A and adjuvant; and (5) the peptide group, immunized with Peptide A only.
Rats in the high dose group and the low dose group were immunized as follows: At Day 0, the first immunization was performed by the following process: Peptide A dissolved in physiological saline was mixed thoroughly with the equivalent volume of Freund's complete adjuvant, and then 0.1 ml of the resultant water-in-oil emulsion was administered via subcutaneous injection to each rat, wherein the dosage of Peptide A contained in the emulsion was 50 μg/kg rat body weight for the high dose group and 25 μg/kg rat body weight for the low dose group respectively. […]
At the first day after the fourth immunization, rats from every group were sacrificed and splenocytes were collected. […] According to the specification of the manufacturer, the level of γ-IFN in sera of the above immunized rats was detected by using γ-IFN ELASA Quantikine ELASA Kit (purchased from R&D, Inc.).

[1] = tested on: D-aminogalactose-induced acute liver damage; assay: D-aminogalactose-induced acute liver damage of rats; assay type: in vivo, Wistar Rats; conditions: high, medium, low dosage (174, 87, 43.5 μg/kg) with adjuvant, four immunizations; 48 h after D-aminogalactose 600 mg/kg
Description: Wistar Rats (body weight of each was 180 g˜220 g; half of them were male and the others were female; and they were purchased from Shanghai Slac Laboratory Animal, Inc.) were divided randomly into 6 groups as follows with 10 rats in each group: (1) the diammonium glycyrrhizinate injection group, injected with diammonium glycyrrhizinate; (2) the high dose group, immunized with Peptide A and adjuvant; (3) the medium dose group, immunized with Peptide A and adjuvant; (4) the low dose group, immunized with Peptide A and adjuvant; (5) the blank control group; and (6) the model group.
Rats in the high dose group, the medium dose group and the low dose group were immunized as follows: At Day 0, the first immunization was performed by the following process: 100 μl of Peptide A dissolved in physiological saline was mixed thoroughly with the equivalent volume of Freund's complete adjuvant, and then 0.2 ml of the resultant water-in-oil emulsion was administered via subcutaneous injection to each rat, wherein the dosage of Peptide A contained in the emulsion was 174 μg/kg rat body weight for the high dose group, 87 μg/kg rat body weight for the medium dose group, and 43.5 μg/kg rat body weight for the low dose group respectively. 14 days later, the second immunization was performed in the same dosage and manner as the first immunization except that, Freund's complete adjuvant was replaced by Freund's incomplete adjuvant. […]
At the 48th hour after intraperitoneally injecting D-aminogalactose, each rat was sacrificed by cervical dislocation, and blood was collected. After sera were isolated, according to the specification of the manufacturer, the activities of glutamic-pyruvic transaminase (SGPT) and glutamic-oxalacetic transaminase (SGOT) in sera were detected respectively by using Glutamic-pyruvic Transaminase Detection Kit (purchased from Nanjing Jiancheng Bioengineering Institute) and Glutamic-oxalacetic Transaminase Detection Kit (purchased from Nanjing Jiancheng Bioengineering Institute).

Question: What does the source list for GQTYTSG [Peptide A]?
Answer: level of γ-IFN, Peptide A only with no adjuvant, versus same dosage of Peptide A and adjuvant (γ-IFN; 50 μg/kg subcutaneous): even higher; γ-IFN in sera of the immunized rats compared to both of the control groups (γ-IFN; Peptide A 50 or 25 μg/kg with adjuvant, or 50 μg/kg without adjuvant, FIG. 2): significant increase; level of glutamic-oxalacetic transaminase (SGOT) in sera versus model group [1]: significant decrease; level of glutamic-pyruvic transaminase (SGPT) in sera versus model group [1]: significant decrease
